Experimental data as given in patent US20200061038A1, “THERAPEUTIC AGENT FOR FIBROSIS AND INHIBITOR OF NUCLEAR TRANSLOCATION OF PHOSPHORYLATED SMAD” (NATIONAL UNIVERSITY CORPORATION CHIBA UNIVERSITY, priority 2016, published 2020).

Experiments:
Smad2 [1] = assay: Smad2 phosphorylation (western blot) in HFL1 cells; assay type: cell-based, human; settings: for phosphorylation level of Smad2 (ROCK pathway): Y27632 20 μM, Cytochalasin B 2 μM; for phosphorylation level of Smad2 (ROCK pathway) / phosphorylation level of Smad2 due to TGFβ1 treatment (PKC inhibitors): TGFβ1 10 ng/mL; for phosphorylation level of Smad2 due to TGFβ1 treatment (PKC inhibitors): GF109203X 10 μM, Rottlerin 1 μM
Procedure: HFL1 cells were inoculated onto a six-well plate by 1.0×10^5 cells/well, and then cultured in 2.0 mL of DMEM containing 10% FBS, to achieve 70% confluence. The cells were washed using Hanks' balanced salt solution (HBSS) containing 0.1% bovine serum albumin (BSA) (4.2 mM NaHCO3, 137 mM NaCl, 5.36 mM KCl, 0.4 mM MgSO4.7H2O, 0.34 mM Na2HPO4.12H2O, 5.55 mM glucose, 0.44 mM KH2PO4, 0.72 mM CaCl2.H2O, pH=7.4), and then cultured in a DMEM containing 0.1% BSA for 48 hours without serum.
Thereafter, the medium was replaced by a DMEM containing 0.1% BSA, and stimulation was given for a specified period using each reagent (each inhibitor was applied 30 minutes before the stimulant), after which the cells were collected on ice using 100 μL of RIPA buffer (150 mM NaCl, 50 mM Tris-HCl, 5 mM EDTA, 5 mM NaF, 10 mM sodium pyrophosphate dibasic, 1% Nonidet P-40, 0.1% sodium dodecyl sulfate, 0.5% sodium deoxycholate, pH 8.0) containing 10 μg/mL aprotinin, 10 μg/mL leupeptin, and phenyl methyl sulfonyl fluoride (PMSF) as a protease inhibitor.
The cells were crushed according to the vortex method, centrifuged under the conditions of 15000 rpm and 4° C. for 30 minutes, and the supernatant was taken as a sample. Quantitative determination of protein was performed according to the Bradford method, and a specified amount of protein was separated by SDS-polyacrylic amide gel electrophoresis. The protein was transferred onto a polyvinylidene difluoride (PVDF) film, blocked for 1 hour at room temperature, with a primary antibody applied overnight at 4° C., and a secondary antibody applied for 1 hour at room temperature.
Thereafter, the PVDF film was soaked in an ECL solution and fluorometric detection was performed using an image capture/analysis system (ChemiDocMP System manufactured by Bio-Rad). The detected bands were converted to numerical values using image processing software (ImageJ).

αSMA = αSMA expression (western blot) in TGFβ1-stimulated HFL1 cells; assay type: cell-based, human; settings: for increase in the αSMA expression level due to TGFβ1 (PKC inhibitors): GF109203X 10 μM, Rottlerin 1 μM, GO06976 0.5 μM and 1.0 μM, 30 minutes before TGFβ1 10 ng/mL; for αSMA expression level recovered, relative to the level when TGFβ1 alone was applied: used together with PPMP (3 μM), lactosylceramide 10 μM
Procedure: Human pulmonary fibroblast (HFL1) (ATCC CCL-153) cells were cultured under the conditions of 95% air-5% CO2 and 37° C., using a Dulbecco's Modified Eagle Medium (DMEM) containing 10% fetal bovine serum (FBS), 100 μg/mL streptomycin, and 66.7 μg/mL penicillin.
How an increase in lactosylceramide synthesis activity due to TGFβ1 affects the fibrosing of tissues was examined based on the expression level of αSMA, which is a fibrosing marker protein.

Smad2 [2] = assay: Smad2 nuclear localization (immunofluorescent staining, confocal) in HFL1 cells; assay type: cell-based, human; settings: TGFβ1 10 ng/mL; for nuclear localization of Smad2 due to TGFβ1 (PKC inhibitors): GF109203X 10 μM, Rottlerin 1 μM, GO06976 1 μM
Procedure: For immunostaining of Smad and phosphorylated Smad, ribonuclease A (RNase, Worthington Biochemical) (200 μg/mL, room temperature, 30 minutes) and propidium iodide (PI, Cayman Chemical) (20 μg/mL, room temperature, 30 minutes) were applied to stain the nucleus, and the stained images were observed using a confocal microscope (FV500 manufactured by Olympus).
When localization of Smad2/3 was observed, on the other hand, Smad2/3 accumulated in the nucleus in 3 hours after the single stimulation of TGFβ1 (10 ng/mL).

PKCδ = assay: Translocation of PKCδ into the cellular membrane in HFL1 cells; assay type: cell-based, human
Procedure: HFL1 cells were inoculated onto a 3.5-cm glass-bottom dish by 1.0×10^4 cells/dish, and then cultured in 2.0 mL of DMEM containing 10% FBS, to achieve 70% confluence. The cells were washed in HBSS containing 0.1% BSA, and then cultured in DMEM containing 0.1% BSA for 48 hours without serum.
Thereafter, the medium was replaced by a DMEM containing 0.1% BSA, and stimulation was given for a specified period using each reagent (each inhibitor was applied 30 minutes before the stimulant), after which each sample was fixed with 4% paraformaldehyde (PFA) at 4° C. for 15 minutes. Thereafter, as deemed appropriate, the sample was permeabilized (0.3% saponin, room temperature, 1 hour) and blocked (3% BSA, room temperature, 1 hour), with a primary antibody applied overnight at 4° C., and a secondary antibody applied for 1 hour at room temperature. For immunostaining of Smad and phosphorylated Smad, ribonuclease A (RNase, Worthington Biochemical) (200 μg/mL, room temperature, 30 minutes) and propidium iodide (PI, Cayman Chemical) (20 μg/mL, room temperature, 30 minutes) were applied to stain the nucleus, and the stained images were observed using a confocal microscope (FV500 manufactured by Olympus).
In general, activation of PKC is observed in the form of its translocation into the cellular membrane; accordingly, involvement of lactosylceramide was examined using the translocation of PKCδ into the cellular membrane as an indicator.

[3] = test system: idiopathic pulmonary fibrosis; settings: patients suffering from idiopathic pulmonary fibrosis; Non-patent Literature 2; cited from earlier work

## C=C1[C@@H](C)[C@H]2[C@H](Cc3ccccc3)NC(=O)[C@]23OC(=O)/C=C/[C@H](O)CCC[C@@H](C)C/C=C/[C@H]3[C@@H]1O [Cytochalasin B]
Smad2 [1]
  phosphorylation level of Smad2 (ROCK pathway): the phosphorylation level did not change

## CN(C)CCCn1cc(C2=C(c3c[nH]c4ccccc34)C(=O)NC2=O)c2ccccc21 [GF109203X]
Smad2 [1]
  phosphorylation level of Smad2 due to TGFβ1 treatment (PKC inhibitors): no change was observed
αSMA
  increase in the αSMA expression level due to TGFβ1 (PKC inhibitors): suppressed significantly
Smad2 [2]
  nuclear localization of Smad2 due to TGFβ1 (PKC inhibitors): suppressed significantly

## Cn1c2ccccc2c2c3c(c4c5ccccc5n(CCC#N)c4c21)CNC3=O [GO06976]
αSMA
  increase in the αSMA expression level due to TGFβ1 (PKC inhibitors): did not suppress the increase in the αSMA expression level
Smad2 [2]
  nuclear localization of Smad2 due to TGFβ1 (PKC inhibitors): did not change

## CCCCCCCCCCCCCC(=O)O[C@@H]1[C@@H](C)[C@@]2(O)[C@@H](C=C(CO)C[C@]3(O)C(=O)C(C)=C[C@@H]23)[C@@H]2C(C)(C)[C@]12OC(C)=O [PMA, phorbol myristate acetate]
αSMA; PMA 100 nM overnight treatment, TGFβ1 10 ng/mL
  increase in the αSMA expression level due to TGFβ1 (PKC down-regulation): suppressed the increase in the αSMA expression level

## CC(=O)c1c(O)c(C)c(O)c(Cc2c(O)c3c(c(C(=O)/C=C/c4ccccc4)c2O)OC(C)(C)C=C3)c1O [Rottlerin]
Smad2 [1]
  phosphorylation level of Smad2 due to TGFβ1 treatment (PKC inhibitors): no change was observed
αSMA
  increase in the αSMA expression level due to TGFβ1 (PKC inhibitors): suppressed significantly
Smad2 [2]
  nuclear localization of Smad2 due to TGFβ1 (PKC inhibitors): suppressed significantly
PKCδ; PPMP 3 μM, Rottlerin 1 μM applied beforehand, two hours after TGFβ1 10 ng/mL
  translocation of PKCδ into the cellular membrane due to TGFβ1: translocation of PKCδ into the cellular membrane was suppressed

## C[C@@H](N)[C@H]1CC[C@H](C(=O)Nc2ccncc2)CC1 [Y27632]
Smad2 [1]
  phosphorylation level of Smad2 (ROCK pathway): the phosphorylation level did not change

## COC(=O)c1ccc2c(c1)NC(=O)/C2=C(\Nc1ccc(N(C)C(=O)CN2CCN(C)CC2)cc1)c1ccccc1 [nintedanib]
[3]
  forced vital capacities of patients: improve the forced vital capacities
  survival periods of patients: cannot extend the survival periods

## Cc1ccc(=O)n(-c2ccccc2)c1 [pirfenidone]
[3]
  forced vital capacities of patients: improve the forced vital capacities
  survival periods of patients: cannot extend the survival periods

## glucosylceramide
αSMA; TGFβ1 10 ng/mL
  αSMA expression level recovered, relative to the level when TGFβ1 alone was applied: approx. 80%

## lactosylceramide
Smad2 [1]; lactosylceramide 10 μM alone, no TGFβ1
  phosphorylation of Smad2 by the substance alone: did not cause phosphorylation of Smad2
αSMA; lactosylceramide 10 μM in combined use with PPMP or NB-DNJ, TGFβ1 10 ng/mL
  recovery of the αSMA expression level suppression action: led to a recovery of the αSMA expression level suppression action
αSMA; TGFβ1 10 ng/mL
  αSMA expression level recovered, relative to the level when TGFβ1 alone was applied: approx. 95%
Smad2 [2]; lactosylceramide 10 μM combined with PPMP
  accumulation of Smad2 in the nucleus, combined use with PPMP: led to a recovery of the suppression action due to PPMP, and Smad2 accumulated in the nucleus
PKCδ; lactosylceramide 10 μM alone
  time the localization of PKCδ on the cellular membrane was sustained: at least 30 minutes
PKCδ; lactosylceramide 10 μM alone, five minutes after the stimulation
  translocation of PKCδ into the cellular membrane by the substance alone: translocation of PKCδ into the cellular membrane was observed
